Results reported in patent US6720346B2, “Thiazole benzamide derivatives and pharmaceutical compositions for inhibiting cell proliferation” (Agouron Pharmaceuticals, Inc., priority 2001, dated 2004).
pIC50, pKi: −log10 of the molar value.

Columns and labels:
[1] = biological target: T1, CDK2/cyclin A (Homo sapiens, UniProt P24941); assay: Inhibition of CDK2/cyclin A retinoblastoma kinase activity (Ki; % inhibition); assay type: biochemical; conditions: for pKi: apparent Ki, CDK2/cyclin A, Rb substrate
T1 construct: made in house; host or cells: CDK2: insect cells (baculovirus); cyclin A: E. coli
Method in brief: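 Apparent Ki values came from fitting concentration-dependent activity data to competitive (or competitive tight-binding) models, and % inhibition from single 30 nM screens of library compounds. Activity was measured as ³²P/³³P incorporation from 25 μM ATP into an Rb substrate by 10 or 19 nM CDK2/delta cyclin A at 30 °C over 60–75 min, pH 7.4.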

[2] = biological target: T2, human CDK4/cyclin D3 (Homo sapiens, UniProt P11802); assay: Inhibition of CDK4/cyclin D retinoblastoma kinase activity (Ki; % inhibition); assay type: biochemical; conditions: for pKi: apparent Ki, CDK4/cyclin D3, Rb substrate
T2 construct: made in house; host or cells: insect cells co-infected with baculovirus vectors
Method in brief: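 Radiometric filter-binding read-out: Rb residues 386-928 phosphorylated by 5 nM CDK4/cyclin D3(1-264) from baculovirus-infected insect cells, 25 μM ATP, HEPES pH 7.4, 30 °C. Run 20 min, or 60 min for tight-binding inhibitors. Screening at 30 nM theoretical compound; apparent Ki by competitive-inhibition fitting.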

[3] = system: HCT-116 cell line; assay: Inhibition of cell growth, MTT tetrazolium salt assay; assay type: cell-based; conditions: for pIC50: Homo sapiens, HCT-116, 120 h, MTT, three to five days
Method in brief: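 HCT-116 cells in McCoy's 5A were dosed 4 h after plating with compounds in 0.5% DMSO and grown 3–5 days at 37 °C. Then 0.2 mg/mL MTT was added for 4 h and formazan absorbance read at 540 nm. IC50/IC90 came from semi-log plots against DMSO-only controls.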

[4] = HCT-116 cells, 0.25 μM compound

T2 sequence (P11802 whole entry): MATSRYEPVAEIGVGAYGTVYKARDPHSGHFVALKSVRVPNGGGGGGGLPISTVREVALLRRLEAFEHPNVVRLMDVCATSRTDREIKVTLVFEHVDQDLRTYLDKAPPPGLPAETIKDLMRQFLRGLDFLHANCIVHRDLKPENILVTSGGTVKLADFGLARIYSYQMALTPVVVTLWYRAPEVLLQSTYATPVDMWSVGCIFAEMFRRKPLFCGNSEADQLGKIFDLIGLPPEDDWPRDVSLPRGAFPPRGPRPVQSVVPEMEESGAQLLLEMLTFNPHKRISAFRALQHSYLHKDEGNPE
T2 sequence (P30281 1-264 partner limits assumed): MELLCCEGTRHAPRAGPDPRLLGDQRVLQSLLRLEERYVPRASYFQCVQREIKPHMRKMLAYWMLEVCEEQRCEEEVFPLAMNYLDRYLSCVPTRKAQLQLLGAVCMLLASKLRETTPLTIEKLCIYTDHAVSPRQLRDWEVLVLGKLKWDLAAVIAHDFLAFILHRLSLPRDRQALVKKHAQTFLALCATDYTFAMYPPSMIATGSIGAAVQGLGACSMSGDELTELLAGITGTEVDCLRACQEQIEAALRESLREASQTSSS

## Nc1nc(Nc2ccc(C(=O)N3CCOCC3)cc2)sc1C(=O)c1c(F)cccc1F [Example G10]
[1]; at 0.03 μM
  CDK2 % Inhibition at 0.03 μM: −4%
[2]; at 0.03 μM
  CDK4 % Inhibition at 0.03 μM: −2%
[3]; HCT-116, at 0.25 μM
  HCT-116 % Inhibition at 0.25 μM: 51%

## Nc1nc(Nc2ccc(C(=O)Nc3cccc(-c4nnco4)c3)cc2)sc1C(=O)c1c(F)cccc1F [Example G369]
[1]; 0.03 μM compound
  CDK2 % Inhibition at 0.03 μM: 26%
[2]; 0.03 μM compound
  CDK4 % Inhibition at 0.03 μM: 8%
[3]; HCT-116 cells, 0.1 μM compound
  HCT-116 % Inhibition at 0.1 μM: 21%
[3]; [4]
  HCT-116 % Inhibition at 0.25 μM: 36%

## CCN(CC)CCNC(=O)c1ccc(Nc2nc(N)c(C(=O)c3c(F)cccc3F)s2)cc1 [Example G157]
[1]; at 0.03 μM
  CDK2 % Inhibition at 0.03 μM: 18%
[2]; at 0.03 μM
  CDK4 % Inhibition at 0.03 μM: 30%
[3]; HCT-116, at 0.1 μM
  HCT-116 % Inhibition at 0.1 μM: 0%
[3]; HCT-116, at 0.25 μM
  HCT-116 % Inhibition at 0.25 μM: 87%

## Nc1nc(Nc2ccc(C(=O)NCC3CCCO3)cc2)sc1C(=O)c1c(F)cccc1F (stereo not shown) [Example G116]
[1]; at 0.03 μM
  CDK2 % Inhibition at 0.03 μM: 7%
[2]; at 0.03 μM
  CDK4 % Inhibition at 0.03 μM: 24%
[3]; HCT-116, at 0.1 μM
  HCT-116 % Inhibition at 0.1 μM: 0%
[3]; HCT-116, at 0.25 μM
  HCT-116 % Inhibition at 0.25 μM: 46%

## Nc1nc(Nc2ccc(C(=O)NCCC3OCCO3)cc2)sc1C(=O)c1c(F)cccc1F [Example G342]
[1]; 0.03 μM compound
  CDK2 % Inhibition at 0.03 μM: −10%
[2]; 0.03 μM compound
  CDK4 % Inhibition at 0.03 μM: 13%
[3]; HCT-116 cells, 0.1 μM compound
  HCT-116 % Inhibition at 0.1 μM: 20%
[3]; [4]
  HCT-116 % Inhibition at 0.25 μM: 55%

## Nc1nc(Nc2ccc(C(=O)NCc3ccc(F)cc3Cl)cc2)sc1C(=O)c1c(F)cccc1F [Example G278]
[1]; 0.03 μM compound
  CDK2 % Inhibition at 0.03 μM: 25%
[2]; 0.03 μM compound
  CDK4 % Inhibition at 0.03 μM: 27%
[3]; HCT-116 cells, 0.1 μM compound
  HCT-116 % Inhibition at 0.1 μM: 6%
[3]; [4]
  HCT-116 % Inhibition at 0.25 μM: 76%

## Nc1nc(Nc2ccc(C(=O)NC3c4ccccc4CC3O)cc2)sc1C(=O)c1c(F)cccc1F (stereo not shown) [Example G376]
[1]; 0.03 μM compound
  CDK2 % Inhibition at 0.03 μM: 20%
[2]; 0.03 μM compound
  CDK4 % Inhibition at 0.03 μM: −6%
[3]; HCT-116 cells, 0.1 μM compound
  HCT-116 % Inhibition at 0.1 μM: 27%
[3]; [4]
  HCT-116 % Inhibition at 0.25 μM: 64%

## CN(CC1CC1)C(C)(C)CNC(=O)c1ccc(Nc2nc(N)c(C(=O)c3c(F)cccc3F)s2)cc1 [Example A39]
[1]
  pKi: 6.80
[2]
  pKi: 7.96
[3]
  pIC50: 6.77

## COc1ccc(CNC(=O)c2ccc(Nc3nc(N)c(C(=O)c4c(F)cccc4F)s3)cc2)c(OC)c1 [Example G254]
[1]; 0.03 μM compound
  CDK2 % Inhibition at 0.03 μM: 28%
[2]; 0.03 μM compound
  CDK4 % Inhibition at 0.03 μM: 20%
[3]; HCT-116 cells, 0.1 μM compound
  HCT-116 % Inhibition at 0.1 μM: 35%
[3]; [4]
  HCT-116 % Inhibition at 0.25 μM: 75%

## C[C@@H](CN(C)C)N(C)C(=O)c1ccc(Nc2nc(N)c(C(=O)c3c(F)cccc3F)s2)cc1 [Example A36, 4-[4-Amino-5-(2,6-difluoro-benzoyl)-thiazol-2-ylamino]-N-(2-dimethylamino-1S-methyl-ethyl)-N-methyl-benzamide]
[1]
  pKi: 6.65
[2]
  pKi: 7.36
[3]
  pIC50: 6.11

## Nc1nc(Nc2ccc(C(=O)NC[C@@H]3CCCC[C@H]3O)cc2)sc1C(=O)c1c(F)cccc1F (relative stereo) [Example G350]
[1]; 0.03 μM compound
  CDK2 % Inhibition at 0.03 μM: 4%
[2]; 0.03 μM compound
  CDK4 % Inhibition at 0.03 μM: 9%
[3]; HCT-116 cells, 0.1 μM compound
  HCT-116 % Inhibition at 0.1 μM: 24%
[3]; [4]
  HCT-116 % Inhibition at 0.25 μM: 41%

## COC(=O)c1ccc(NC(=O)c2ccc(Nc3nc(N)c(C(=O)c4c(F)cccc4F)s3)cc2)c(C)c1 [Example G354]
[1]; 0.03 μM compound
  CDK2 % Inhibition at 0.03 μM: 9%
[2]; 0.03 μM compound
  CDK4 % Inhibition at 0.03 μM: 3%
[3]; HCT-116 cells, 0.1 μM compound
  HCT-116 % Inhibition at 0.1 μM: 31%
[3]; [4]
  HCT-116 % Inhibition at 0.25 μM: 60%

## Nc1nc(Nc2ccc(C(=O)Nc3ccc(O)cc3)cc2)sc1C(=O)c1c(F)cccc1F [Example G74]
[1]; at 0.03 μM
  CDK2 % Inhibition at 0.03 μM: 23%
[2]; at 0.03 μM
  CDK4 % Inhibition at 0.03 μM: 18%
[3]; HCT-116, at 0.25 μM
  HCT-116 % Inhibition at 0.25 μM: 78%

## CSCCC(CO)NC(=O)c1ccc(Nc2nc(N)c(C(=O)c3c(F)cccc3F)s2)cc1 (stereo not shown) [Example G386]
[1]; 0.03 μM compound
  CDK2 % Inhibition at 0.03 μM: 19%
[2]; 0.03 μM compound
  CDK4 % Inhibition at 0.03 μM: 12%
[3]; HCT-116 cells, 0.1 μM compound
  HCT-116 % Inhibition at 0.1 μM: 28%
[3]; [4]
  HCT-116 % Inhibition at 0.25 μM: 51%

## CN(CCc1ccccc1)C(=O)c1ccc(Nc2nc(N)c(C(=O)c3c(F)cccc3F)s2)cc1 [Example G11]
[1]; at 0.03 μM
  CDK2 % Inhibition at 0.03 μM: −12%
[2]; at 0.03 μM
  CDK4 % Inhibition at 0.03 μM: 6%
[3]; HCT-116, at 0.25 μM
  HCT-116 % Inhibition at 0.25 μM: 49%

## CN(Cc1ccccc1Cl)C(=O)c1ccc(Nc2nc(N)c(C(=O)c3c(F)cccc3F)s2)cc1 [Example G259]
[1]; 0.03 μM compound
  CDK2 % Inhibition at 0.03 μM: −30%
[2]; 0.03 μM compound
  CDK4 % Inhibition at 0.03 μM: −20%
[3]; HCT-116 cells, 0.1 μM compound
  HCT-116 % Inhibition at 0.1 μM: 21%
[3]; [4]
  HCT-116 % Inhibition at 0.25 μM: 46%

## Nc1nc(Nc2ccc(C(=O)NCCc3ccccn3)cc2)sc1C(=O)c1c(F)cccc1F [Example G140]
[1]; at 0.03 μM
  CDK2 % Inhibition at 0.03 μM: 15%
[2]; at 0.03 μM
  CDK4 % Inhibition at 0.03 μM: 19%
[3]; HCT-116, at 0.1 μM
  HCT-116 % Inhibition at 0.1 μM: 0%
[3]; HCT-116, at 0.25 μM
  HCT-116 % Inhibition at 0.25 μM: 54%

## Nc1nc(Nc2ccc(C(=O)NCc3cccc(Cl)c3Cl)cc2)sc1C(=O)c1c(F)cccc1F [Example G216]
[1]; 0.03 μM compound
  CDK2 % Inhibition at 0.03 μM: 29%
[2]; 0.03 μM compound
  CDK4 % Inhibition at 0.03 μM: 36%
[3]; HCT-116 cells, 0.1 μM compound
  HCT-116 % Inhibition at 0.1 μM: 16%
[3]; [4]
  HCT-116 % Inhibition at 0.25 μM: 54%

## CC(C)N(CCNC(=O)c1ccc(Nc2nc(N)c(C(=O)c3c(F)cccc3F)s2)cc1)C(C)C [Example A23, 4-[4-Amino-5-(2,6-difluoro-benzoyl)-thiazol-2-ylamino]-N-(2-diisopropylamino-ethyl)-benzamide]
[1]
  pKi: 6.89
[2]
  pKi: 8.10
[3]
  pIC50: 7.00

## Nc1nc(Nc2ccc(C(=O)NC3CCCCC3)cc2)sc1C(=O)c1c(F)cccc1F [Example G139]
[1]; at 0.03 μM
  CDK2 % Inhibition at 0.03 μM: 6%
[2]; at 0.03 μM
  CDK4 % Inhibition at 0.03 μM: 17%
[3]; HCT-116, at 0.1 μM
  HCT-116 % Inhibition at 0.1 μM: 0%
[3]; HCT-116, at 0.25 μM
  HCT-116 % Inhibition at 0.25 μM: 56%

## Nc1nc(Nc2ccc(C(=O)NCc3cccc(C(F)(F)F)c3)cc2)sc1C(=O)c1c(F)cccc1F [Example G293]
[1]; 0.03 μM compound
  CDK2 % Inhibition at 0.03 μM: 23%
[2]; 0.03 μM compound
  CDK4 % Inhibition at 0.03 μM: 32%
[3]; HCT-116 cells, 0.1 μM compound
  HCT-116 % Inhibition at 0.1 μM: 10%
[3]; [4]
  HCT-116 % Inhibition at 0.25 μM: 56%

## NC(=O)CNC(=O)c1ccc(Nc2nc(N)c(C(=O)c3c(Cl)cccc3Cl)s2)cc1 [Example B1, 4-[4-Amino-5-(2,6-dichloro-benzoyl)-thiazol-2-ylamino]-N-carbamoylmethyl-benzamide]
[1]
  pKi: 7.19
[2]
  pKi: 7.77
[3]
  pIC50: 4.74

## CN(C)C(C)(C)CNC(=O)c1ccc(Nc2nc(N)c(C(=O)c3c(F)cccc3F)s2)cc1 [Example A12, 4-[4-Amino-5-(2,6-difluoro-benzoyl)-thiazol-2-ylamino]-N-(2-dimethylamino-2-methyl-propyl)-benzamide]
[1]
  pKi: 7.04
[2]
  pKi: 7.70
[3]
  pIC50: 6.89

## CC(CN(C)C)NC(=O)c1ccc(Nc2nc(N)c(C(=O)c3c(F)cccc3F)s2)cc1O (stereo not shown) [Example D2, 4-[4-Amino-5-(2,6-difluoro-benzoyl)-thiazol-2-ylamino]-N-(2-dimethylamino-1RS-methyl-ethyl)-2-hydroxy-benzamide]
[1]
  pKi: 7.29
[2]
  pKi: 7.60
[3]
  pIC50: 6.24

## COC(=O)c1ccccc1NC(=O)c1ccc(Nc2nc(N)c(C(=O)c3c(F)cccc3F)s2)cc1 [Example G39]
[1]; at 0.03 μM
  CDK2 % Inhibition at 0.03 μM: −4%
[2]; at 0.03 μM
  CDK4 % Inhibition at 0.03 μM: −1%
[3]; HCT-116, at 0.25 μM
  HCT-116 % Inhibition at 0.25 μM: 65%

## Cc1cc(F)c(C(=O)c2sc(Nc3ccc(C(=O)NC[C@@H]4CCCN4C)cc3)nc2N)c(F)c1 [Example A68, 4-{4-Amino-5-(2,6-difluoro-4-methyl-benzoyl)-thiazol-2-ylamino}-N-(1-methyl-pyrrolidin-2S-ylmethyl)-benzamide]
[1]
  pKi: 8.07
[2]
  pKi: 7.35
[3]
  pIC50: 7.12

## Nc1nc(Nc2ccc(C(=O)N3CCN(Cc4ccccc4)CC3)cc2)sc1C(=O)c1c(F)cccc1F [Example G217]
[1]; 0.03 μM compound
  CDK2 % Inhibition at 0.03 μM: 17%
[2]; 0.03 μM compound
  CDK4 % Inhibition at 0.03 μM: 34%
[3]; HCT-116 cells, 0.1 μM compound
  HCT-116 % Inhibition at 0.1 μM: 8%
[3]; [4]
  HCT-116 % Inhibition at 0.25 μM: 51%

## Cc1ccc(NC(=O)c2ccc(Nc3nc(N)c(C(=O)c4c(F)cccc4F)s3)cc2)c(Cl)c1 [Example G44]
[1]; at 0.03 μM
  CDK2 % Inhibition at 0.03 μM: 8%
[2]; at 0.03 μM
  CDK4 % Inhibition at 0.03 μM: 14%
[3]; HCT-116, at 0.25 μM
  HCT-116 % Inhibition at 0.25 μM: 72%
